Results taken from US9701670B2, “Pyrazolyl-ureas as kinase inhibitors” (RESPIVERT LIMITED, priority 2013, dated 2017).

Assays:
BDF1 mice = test: (C) TNBS-induced colitis in mice; assay type: in vivo, mouse; design: TNBS Ulcer grade / TNBS LP inflammation: scale not given here; details: 2 days; for TNBS LP inflammation / TNBS Ulcer grade: mice
Experimental: Non-fasted, 10-12 week old, male BDF1 mice are dosed by oral gavage twice daily with either vehicle (5 mL/kg), reference item (Budesonide 2.5 mg/kg) or test compound (1, 5 or 50 mg/kg) one day before (Day −1) stimulation of the inflammatory response by treatment with 2,4,6-trinitrobenzenesulphonic acid (TNBS) (15 mg/mL in 50% ethanol/50% saline). On Day 0 of the study TNBS (200 μL) is administered intra-colonically via a plastic catheter followed by BID dosing of the vehicle, reference or test compound for 2 or 4 days. During the study animals are weighed every day and stool observations are made and recorded as a score, based on stool consistency. At the time of sacrifice on Day 2 (or Day 4) the large intestine is removed and the length and weight recorded. Sections of the colon are taken for either MPO analysis to determine neutrophil infiltration or for histopathology involving scoring to determine disease severity.

[1] = molecular target: T1, p38 MAPKα isoform (MAPK14) (Homo sapiens (Human), UniProt Q16539); test: p38 MAPKα enzyme inhibition (FRET, Z-LYTE), Method 1; assay type: biochemical; details: Method 1 (Table 4a1)
T1 sequence (Q16539 whole entry, canonical isoform): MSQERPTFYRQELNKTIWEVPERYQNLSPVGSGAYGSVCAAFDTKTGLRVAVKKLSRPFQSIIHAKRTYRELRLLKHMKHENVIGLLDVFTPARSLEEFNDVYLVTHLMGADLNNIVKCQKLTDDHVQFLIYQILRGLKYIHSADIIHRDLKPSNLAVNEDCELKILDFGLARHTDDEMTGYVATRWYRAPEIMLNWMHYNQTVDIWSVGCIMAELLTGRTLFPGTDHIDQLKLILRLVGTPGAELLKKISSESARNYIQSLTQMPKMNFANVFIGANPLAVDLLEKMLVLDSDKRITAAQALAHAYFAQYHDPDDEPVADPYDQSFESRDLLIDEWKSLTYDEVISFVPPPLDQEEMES

[2] = molecular target: T1, p38 MAPKα isoform (MAPK14); test: p38 MAPKα enzyme inhibition (FRET, Z-LYTE), Method 2; assay type: biochemical; details: Method 2, different laboratory (Table 4a2)
Experimental: The enzyme inhibitory activities of compounds disclosed herein are determined by FRET using synthetic peptides labelled with both donor and acceptor fluorophores (Z-LYTE, Invitrogen Ltd., Paisley, UK).
The inhibitory activities of test compounds against the p38 MAPKα isoform (MAPK14: Invitrogen), are evaluated indirectly by determining the level of activation/phosphorylation of the down-stream molecule, MAPKAP-K2. The p38 MAPKα protein (80 ng/mL, 2.5 μL) is mixed with the test compound (2.5 μL of either 4 μg/mL, 0.4 μg/mL, 0.04 μg/mL or 0.004 μg/mL) for 2 hr at RT. […] The mixture is incubated for 1 hr at RT. Development reagent (protease, 5 μL) is added for 1 hr prior to detection in a fluorescence microplate reader (Varioskan® Flash, ThermoFisher Scientific).
In all cases, the site-specific protease cleaves non-phosphorylated peptide only and eliminates the FRET signal. Phosphorylation levels of each reaction are calculated using the ratio of coumarin emission (donor) over fluorescein emission (acceptor), for which high ratios indicate high phosphorylation and low ratios indicate low phosphorylation levels.

[3] = tested on: Differentiated U937 cells; test: (l) Cell viability: MTT assay; assay type: cell-based, human; details: 1 μg/mL
Procedure, shortened: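 Differentiated U937 cells were exposed to compound at 1 or 10 μg/mL either 4 h in 5% FCS RPMI1640 or 24 h in 10% FCS RPMI1640, then given MTT for 1 h, DMSO-solubilised and read at 550 nm. Percent viability loss versus 0.5% DMSO vehicle; apparent gains appear negative.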

[4] = tested on: β-catenin in d-U937 cells; test: (m) Accumulation of β catenin in d-U937 cells; assay type: cell-based, human
Experimental: U937 cells, a human monocytic cell line, are differentiated into macrophage-type cells by incubation with PMA; (100 ng/mL) for between 48 to 72 hr. The cells are then incubated with either final concentrations of test compound or vehicle for 18 hr. The induction of β-catenin by the test compounds is stopped by replacing the media with 4% formaldehyde solution. Endogenous peroxide activity is neutralised by incubating with quenching buffer (100 μL, 0.1% sodium azide, 1% H2O2 in PBS with 0.05% Tween-20) for 20 min. The cells are washed with washing buffer (200 μL; PBS containing 0.05% Tween-20) and incubated with blocking solution (200 μL; 5% milk in PBS) for 1 hr, re-washed with washing buffer (200 μL) and then incubated overnight with anti-β-catenin antibody solution (50 μL) in 1% BSA/PBS (BD, Oxford, UK).
After washing with washing buffer (3×200 μL; PBS containing 0.05% Tween-20), cells are incubated with an HRP-conjugated secondary antibody solution (100 μL) in 1% BSA/PBS (Dako, Cambridge, UK) and the resultant signal is determined colourimetrically (OD: 450 nm with a reference wavelength of 655 nm) using TMB substrate (50 μL; R&D Systems, Abingdon, UK). This reaction is stopped by addition of 1N H2SO4 solution (50 μL). Cells are then washed with washing buffer and 2% crystal violet solution (50 μL) is applied for 30 min. After washing with washing buffer (3×200 μL), 1% SDS (100 μL) is added to each well and the plates are shaken lightly for 1 hr prior to measuring the absorbance at 595 nm (Varioskan® Flash, Thermo-Fisher Scientific).
The measured OD450-655 readings are corrected for cell number by dividing the OD450-655 by the OD595 readings. […] A signal less than 0.15 (15%) of that observed for the standard control is designated as “-ve”.

[5] = tested on: Intestinal mucosa biopsies from the inflamed regions of the colon of IBD patients; test: (h) Human biopsy assay (cytokine release); assay type: cell-based
Experimental: Intestinal mucosa biopsies are obtained from the inflamed regions of the colon of IBD patients. The biopsy material is cut into small pieces (2-3 mm) and placed on steel grids in an organ culture chamber at 37° C. in a 5% CO2/95% O2 atmosphere in serum-free media. DMSO control or test compounds at the desired concentration are added to the tissue and incubated for 24 hr in the organ culture chamber. The supernatant is harvested for determination of IL-6, IL-8, […] and TNFα levels by R&D ELISA.

Row | Structure (SMILES) | TNBS LP inflammation (BDF1 mice; 2.5 mg/kg oral BID) | TNBS Ulcer grade (BDF1 mice; 2.5 mg/kg oral BID) | IC50 [1] | IC50 [2] | Cell viability at time point in d-U937 cells 4 h [3] | Cell viability at time point in d-U937 cells 24 h [3] | % β-catenin induction ([4]; 1 μg/mL test compound) | % β-catenin induction ([4]; 5 μg/mL test compound) | % β-catenin induction ([4]; 10 μg/mL test compound) | Cytokine release from biopsies of UC patients IL-1b release ([5]; 1 μg/mL, DMSO control 100%) | Cytokine release from biopsies of UC patients IL-6 release ([5]; 1 μg/mL, DMSO control 100%) | Cytokine release from biopsies of UC patients IL-8 release ([5]; 1 μg/mL, DMSO control 100%) | cytokine release from biopsies from ulcerative colitis (UC) patients ([5]; added to biopsies in vitro) | histopathology analysis, in vivo model of colonic inflammation (BDF1 mice; TNBS-induced colitis, dosed orally at 5 mg/kg) | TNBS LP inflammation (BDF1 mice; 1 mg/kg oral BID) | TNBS Ulcer grade (BDF1 mice; 1 mg/kg oral BID) | TNBS LP inflammation (BDF1 mice; 5 mg/kg oral BID) | TNBS Ulcer grade (BDF1 mice; 5 mg/kg oral BID)
1 | CCCC1O[C@@H]2C[C@H]3[C@@H]4CCC5=CC(=O)C=C[C@]5(C)[C@H]4[C@@H](O)C[C@]3(C)[C@]2(C(=O)CO)O1 (stereo partly drawn) [Budesonide, reference compound] | 2.5 ± 0.4 | 2.9 ± 0.6 |  |  |  |  |  |  |  |  |  |  |  |  |  |  |  | 
2 | COc1cc(Nc2cc(Oc3ccc(NC(=O)Nc4cc(C(C)(C)C)nn4-c4ccc(C)cc4)c4ccccc34)ccn2)cc(C(=O)NCCN2CCOCC2)c1 [Example 1, 3-((4-((4-(3-(3-(tert-Butyl)-1-(p-tolyl)-1H-pyrazol-5-yl)ureido)naphthalen-1-yl)oxy)pyridin-2-yl)amino)-5-methoxy-N-(2-morpholinoethyl)benzamide] |  |  | 40 nM | 50 nM | −ve (−ve and +ve indicate that the value is below and above respectively, the no significant effect threshold, defined as 30% inhibition at 1 μg/mL at the time point indicated.) | −ve (−ve and +ve indicate that the value is below and above respectively, the no significant effect threshold, defined as 30% inhibition at 1 μg/mL at the time point indicated.) | −7% | −6% |  |  |  |  |  |  |  |  |  | 
3 | COCCNC(=O)c1cc(Nc2nccc(Oc3ccc(NC(=O)Nc4cc(C(C)C)nn4-c4ccc(OC)cc4)c4ccccc34)n2)cc(OC)c1 [Example 11, 3-((4-((4-(3-(3-Isopropyl-1-(4-methoxyphenyl)-1H-pyrazol-5-yl)ureido)naphthalen-1-yl)oxy)pyrimidin-2-yl)amino)-5-methoxy-N-(2-methoxyethyl)benzamide] |  |  | 25 nM | 104 nM | −ve (−ve and +ve indicate that the value is below and above respectively, the no significant effect threshold, defined as 30% inhibition at 1 μg/mL at the time point indicated.) | −ve (−ve and +ve indicate that the value is below and above respectively, the no significant effect threshold, defined as 30% inhibition at 1 μg/mL at the time point indicated.) | −1% | 1% | 1% |  |  |  |  |  |  |  |  | 
4 | C#Cc1cc(Nc2nccc(Oc3ccc(NC(=O)Nc4cc(C(C)C)nn4-c4ccc(C)cc4)c4ccccc34)n2)cc(C(=O)NCCN2CCOCC2)c1 [Example 46, 3-ethynyl-5-((4-((4-(3-(3-isopropyl-1-(p-tolyl)-1H-pyrazol-5-yl)ureido)naphthalen-1-yl)oxy)pyrimidin-2-yl)amino)-N-(2-morpholinoethyl)benzamide] |  |  |  | 41 nM | −ve (−ve and +ve indicate that the value is below and above respectively, the no significant effect threshold, defined as 30% inhibition at 1 μg/mL at the time point indicated.) | −ve (−ve and +ve indicate that the value is below and above respectively, the no significant effect threshold, defined as 30% inhibition at 1 μg/mL at the time point indicated.) |  |  |  | 35 ± 14% | 44 ± 38% | 49 ± 35% | markedly reduced IL-1b, IL-6 and IL-8 release | significant activity | 3.1 ± 0.6 | 3.4 ± 0.6 | 2.0 ± 0.5 | 2.4 ± 0.6
